Source: US11491105B2, “Methods of treating microbial infections, including mastitis” (priority 2013, dated 2022)

Tests used:
red blood cells = assay: Eukaryotic cell toxicity testing (erythrocyte haemolysis); assay type: cell-based; details: 2% blood cell solution, 37° C., one hour
Experimental: Erythrocyte haemolysis was used in order to test the toxicity of all five compounds to eukaryotic cells. Blood samples were washed using 9.1 g/L saline solution and centrifuged at 2500 rpm for 10 minutes. This process was repeated until cellular debris and partially lysed cells were removed from solution. 2 mL of the remaining blood cells were suspended in 98 mL of 9.1 g/L saline solution to produce a 2% blood cell solution, which was dispensed in 90 μL volumes into the wells of a 96 well plate. The compound solutions as well as chloramphenicol were prepared from stock solution to a concentration of 256 μg/mL (as described above). Chloramphenicol was used as a negative control for erythrocyte lysis while a ready to use solution of amphotericin B was used as a positive control. 90 μL of the compounds and controls were added to the final well in different rows. These compounds were serially diluted across the row in order to test the different concentrations of antimicrobials. Wells containing only 2% blood solution were also used to assess variation between readings from different columns on the 96 well plates. These tests were incubated at 37° C. for one hour and then assessed for lysis both visually and using a microplate reader to measure optical density at 600 nm wavelengths. Each test was performed in duplicate and then repeated in quadruplicate in order to ensure accuracy.

[1] = APVMA, December 2013, MRL Standard 2012; cited from earlier work
[2] = Residue depletion of LP1369 in milk of treated mastitis quarters (Example 9); design: species or system lactating dairy cows; details: in vivo
Experimental: Data on concentrations of LP1369 in milk from 6 quarters for IVP 1 and IVP 2 treated at 6 occasions (6 consecutive milkings) after treatment was provided by the analytical laboratory at the School of Pharmacy, University of South Australia, Adelaide, SA, Australia. The limit of quantification (LoQ) of the method for LP1369 in milk was 0.088 mg/L. The Maximum Residues level (MRL) for LP1369 is 0.010 mg/kg according to the APVMA, December 2013, Agricultural and Veterinary Chemicals Code Instrument No. 4 (MRL Standard) 2012.
In milk samples where LP1369 levels were below the LoQ, LP1369 concentration was set to 0.0001 mg/L.
Therefore, the concentrations of LP1369 in whole milk were log-transformed before calculating means and standard deviations (weighted by the volume of milk produced by each animal) for each time point, using Microsoft Excel 2010.
The determination of the depletion of any substance from milk is affected by the size of the population studied. As the number of sampled cows in this study was small, the g′ factor (a factor that provides a 99% confidence interval so that results are likely to be representative of the population) was applied to the analysis. The possibility of dispersed data was minimised by fixing the g′ factor for a population of 20 animals.
The following assumptions were made. […]

[3] = test system: Staphylococcus isolates (methicillin-sensitive and methicillin-resistant); assay: Minimum inhibitory concentration assay (Example 1); assay type: cell-based; details: methicillin-resistant isolates
Experimental: Forty-two isolates of Staphylococcus of varying species and strain type were collected from isolate collections. Biochemical testing including coagulase, latex agglutination testing for protein A, Vogues-Proskauer tests and resistance to polymyxin B were used to identify the species of Staphylococcus. All isolates were also screened for resistance to various antimicrobials commonly used for the treatment of infections. This was performed using the disk diffusion method and resistance standards as outlined by the CLSI. The following antimicrobials were used: amoxicillin-clavulanic acid (30 μg), cephalothin (30 μg), clindamycin (2 μg), enrofloxacin (5 μg), erythromycin (15 μg), gentamicin (10 μg), imipenem (10 μg), oxacillin (1 μg), penicillin G (10 units), tetracycline (30 μg), 1:19 trimethoprim-sulfamethoxazole (25 μg) and vancomycin (30 μg).
Minimum inhibitory concentration tests were performed according to CLSI Standards (CLSI 2012). 90 μL of one of the test compound solutions, or ampicillin, was added to the end column of a 96 well plate that contained 90 μL of CAMHB in each well. The solutions were then serially diluted across the row, leaving 2 columns for positive and negative controls (FIG. 2). A bacterial suspension was prepared by adding fresh colonies obtained from an overnight culture on Sheep Blood Agar (SBA) to a 9.1 g/L saline solution. This suspension was adjusted to a concentration of between 4×10^8 and 5×10^8 CFU/mL. Concentration of the suspension was determined by measuring optical density (OD) using a spectrophotometer at a wavelength of 600 nm where the correct concentration was determined to have an optical density of between 1.00 and 1.20. 1 mL of this suspension was added to 9 mL of saline before being added to all wells, excluding the negative control wells, in 10 μL volumes giving a final concentration of between 4×10^5 and 5×10^5 CFU/mL in each well. The tests were then incubated for 24 hours at 37° C. and then assessed both visually and using OD readings from a microplate reader at a wavelength of 600 nm. These tests were performed in duplicate but repeated if discrepancies were observed.
The minimum inhibitory concentration (MIC) was determined to be the lowest concentration of antibiotic that prevented growth of bacteria both visually and using OD readings. Direct statistical comparisons between the test compounds and ampicillin could not be performed in light of confidential information restrictions, such as restrictions on disclosure of information relating to the compound structure, such as molecular weight. Instead, MIC values were collated and used to determine the lowest concentration of each compound that was effective against 50% and 90% of isolates, referred to as the MIC50 and MIC90 respectively. These values as well as the range of MIC values were then used for direct comparisons between test compounds and for general comparisons with ampicillin.

MRSA 9 = assay: Microdilution time-kill assay; assay type: cell-based, Staphylococcus aureus; details: 1×MIC; increase evident after 24 hours
Experimental: Following assessment of MIC and MBC results, two compounds were chosen for analysis using microdilution time-kill assays, LP 1369 and LP 6315 and these were compared to ampicillin. Time-kill assays were performed according to the M26-A guidelines of the CLSI, with modifications. The test compounds and ampicillin were serial diluted in CAMHB across the rows of a 96 well plate and a bacterial suspension was prepared and added in the same manner as the MIC testing. […] The time points assessed were 0, 1, 2, 4, 8, 12, 24 and 48 hours after the addition of the bacterial suspension to the wells. Each test compound was tested in triplicate while ampicillin was tested in duplicate and this test was independently repeated. The bacterial strains used for the microdilution assays were chosen based on bactericidal activity evident during MBC testing. One strain from each of the categories of Staphylococcus in the isolate collection (methicillin-sensitive, methicillin resistant and coagulase negative) were selected as well as the ATCC reference strain for comparison. These strains were strains MSS 1, MSS 11, MRSA 9 and the ATCC 49775 reference strain.

Row | Structure (SMILES) | concentration at which lysis was most visually evident (red blood cells) [µg/mL] | concentration range in which some lysis of cells was observed (red blood cells) [µg/mL] | Maximum Residues level (MRL) [1] [mg/kg] | clearance from treated quarters with mastitis (in words) [2] | MIC50 and MIC90 values compared with ampicillin [3] | growth at 1×MIC (MRSA 9)
1 | CC[C@@H](C(=O)[C@@H](C)[C@@H](O)[C@H](C)CCc1ccc(C)c(O)c1C(=O)O)[C@H]1O[C@](CC)([C@H]2CC[C@](O)(CC)[C@H](C)O2)C[C@@H]1C [LP 1369, Lasalocid] | 64 | 32 to 128 | 0.010 | cleared rapidly | considerably lower than ampicillin | –
2 | CO[C@@H]1[C@@H](OC)[C@H](C)[C@@](O)(CC(=O)O)O[C@H]1[C@H](C)[C@H]1O[C@@]2(CC[C@@](C)([C@H]3CC[C@@](C)([C@@H]4O[C@@H]([C@H]5O[C@](C)(O)[C@H](C)C[C@@H]5C)C[C@@H]4O[C@@H]4C[C@H](OC)[C@@H](OC)[C@H](C)O4)O3)O2)C[C@H](O)[C@H]1C.N [LP 6315, Maduramicin] | – | – | – | – | considerably lower than ampicillin | after 48 hours this growth was no longer observed
